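Dose response: 5 concentrations. Exposure: 48 h. Format: 96-well plates. Endpoint: linear interpolation; highest concentration if not reached. TGI is the concentration that stops growth completely.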
tested on: M14 melanoma; assay: NCI anticancer screen, dose series, 48 h

SMILES	TGI [µM]
CCOc1cccc(C=Nc2ccccc2SSc2ccccc2N=Cc2cccc(OCC)c2O)c1O	19.4
COc1cc(C(=O)NNC(=O)c2cc(Br)ccc2NC(=O)c2cccs2)cc(OC)c1OC	59.8
Cc1c2c(cc3c1C(=O)C(=O)C([C@@H](C)CO)=C3O)C(C)(C)CCC2	67.5
C[N+]12CCCCC1C(COc1cccc3cccnc13)CCC2 (centres undefined)	> 100
NC(=O)NC1NC(=O)NC1=O (centres undefined)	> 100
CC[C@@]1(O)C(=O)OCc2c1cc1n(c2=O)Cc2c-1nc1ccccc1c2/C=N\NC(=O)C[n+]1ccccc1	6.37
COc1ccc(CC2Cc3ccccc3CCN2)cc1OC (centres undefined)	> 50
C=CCN1C(=O)/C(=C/c2ccc(Cl)cc2)N=C1SC/C=C/C	> 100
CN(C)CCn1c(=O)c2ccc(NCCNCCO)c3c(=O)c4ccccc4n(c1=O)c23	1.72
OCC1OC(NC(=S)NCCC(F)(F)C(F)(F)C(F)(F)C(F)(F)C(F)(F)C(F)(F)F)C(O)C(O)C1O (centres undefined)	> 100
COC(=O)c1ccccc1/C=C1\Cc2c(ccc3c2CCC3)C1=O	> 100
Nc1cc(Cl)cc2cc(Cl)cnc12	> 100
O=S(=O)(O)CCSSCCS(=O)(=O)O	> 1000
CC1=CC[C@H](C[C@H](C#CCCCC2OCCO2)O[Si](C(C)C)(C(C)C)C(C)C)C(=O)CC1	> 100
CC(=O)OCC1OC(NC(=S)Nn2c(=O)[nH]c3ccccc3c2=O)C(OC(C)=O)C(OC(C)=O)C1OC(C)=O (centres undefined)	> 100
Cc1ccc2c(c1)C(=O)C1(C2)Cc2c(C)cccc2C1=O (centres undefined)	> 100
CC1=NN(c2cccc(S(=O)(=O)O)c2)C2(C1)C(Cl)C(=O)N2c1nc2ccccc2s1 (centres undefined)	24.6
O=c1[nH]c(=O)n(C/C=C/CO)nc1Br	> 100
O=C1Cc2c([nH]c3ccc(Br)cc23)-c2cc(Br)ccc2N1	> 100
O=C1CC(Br)c2c(Br)sc(Br)c21 (centres undefined)	29.2
CC[C@]12C=CCN3CC[C@@]4(c5cc(Br)c(OC)c([N+](=O)[O-])c5N(C)[C@H]4[C@@](O)(C(=O)OC)[C@@H]1OC(C)=O)[C@@H]32	> 100
COc1ccc(CNc2ccn(C3OC(CO)C(O)C3O)c(=O)n2)cc1 (centres undefined)	> 100
NC(CSS(=O)(=O)O)=NC1CC2CCC1C2 (centres undefined)	> 100
COc1cccc(Nc2nc(C)c([N+](=O)[O-])c(Nc3cccc(OC)c3)n2)c1	> 100
O=C(O)c1cccc(Nc2c(C(=O)O)cccc2[N+](=O)[O-])c1	> 100
O=c1[nH]c2cccc([N+](=O)[O-])c2c(=O)n1-c1ccc(Cl)cc1	29.2
O=[N+]([O-])/C(C(Cl)=C(Cl)Cl)=C1\Nc2ccc([N+](=O)[O-])cc2N1	> 100
OC1=C2c3ccccc3NC2Oc2cc(F)ccc21 (centres undefined)	31.8

tested on: T-47D breast; assay: NCI anticancer screen, dose series, 48 h

SMILES	TGI [µM]
CCOc1cccc(C=Nc2ccccc2SSc2ccccc2N=Cc2cccc(OCC)c2O)c1O	10.7
COc1cc(C(=O)NNC(=O)c2cc(Br)ccc2NC(=O)c2cccs2)cc(OC)c1OC	> 100
Cc1c2c(cc3c1C(=O)C(=O)C([C@@H](C)CO)=C3O)C(C)(C)CCC2	> 100
C[N+]12CCCCC1C(COc1cccc3cccnc13)CCC2 (centres undefined)	> 100
NC(=O)NC1NC(=O)NC1=O (centres undefined)	> 100
CC[C@@]1(O)C(=O)OCc2c1cc1n(c2=O)Cc2c-1nc1ccccc1c2/C=N\NC(=O)C[n+]1ccccc1	2.9
COc1ccc(CC2Cc3ccccc3CCN2)cc1OC (centres undefined)	> 50
C=CCN1C(=O)/C(=C/c2ccc(Cl)cc2)N=C1SC/C=C/C	> 100
CC12Nc3c(Cl)cc(Cl)cc3N1C(=O)c1ccccc12 (centres undefined)	> 100
CN(C)CCn1c(=O)c2ccc(NCCNCCO)c3c(=O)c4ccccc4n(c1=O)c23	7.61
OCC1OC(NC(=S)NCCC(F)(F)C(F)(F)C(F)(F)C(F)(F)C(F)(F)C(F)(F)F)C(O)C(O)C1O (centres undefined)	> 100
COC(=O)c1ccccc1/C=C1\Cc2c(ccc3c2CCC3)C1=O	> 100
Nc1cc(Cl)cc2cc(Cl)cnc12	> 100
O=S(=O)(O)CCSSCCS(=O)(=O)O	> 1000
CC1=CC[C@H](C[C@H](C#CCCCC2OCCO2)O[Si](C(C)C)(C(C)C)C(C)C)C(=O)CC1	> 100
CC(=O)OCC1OC(NC(=S)Nn2c(=O)[nH]c3ccccc3c2=O)C(OC(C)=O)C(OC(C)=O)C1OC(C)=O (centres undefined)	> 100
Cc1ccc2c(c1)C(=O)C1(C2)Cc2c(C)cccc2C1=O (centres undefined)	> 100
CC1=NN(c2cccc(S(=O)(=O)O)c2)C2(C1)C(Cl)C(=O)N2c1nc2ccccc2s1 (centres undefined)	40.4
O=c1[nH]c(=O)n(C/C=C/CO)nc1Br	> 100
O=C1Cc2c([nH]c3ccc(Br)cc23)-c2cc(Br)ccc2N1	> 100
O=C1CC(Br)c2c(Br)sc(Br)c21 (centres undefined)	38.3
CC[C@]12C=CCN3CC[C@@]4(c5cc(Br)c(OC)c([N+](=O)[O-])c5N(C)[C@H]4[C@@](O)(C(=O)OC)[C@@H]1OC(C)=O)[C@@H]32	> 100
COc1ccc(CNc2ccn(C3OC(CO)C(O)C3O)c(=O)n2)cc1 (centres undefined)	94.7
COc1ccc(NC(=S)Nc2cc(C)ccn2)cc1	> 100
NC(CSS(=O)(=O)O)=NC1CC2CCC1C2 (centres undefined)	> 100
COc1cccc(Nc2nc(C)c([N+](=O)[O-])c(Nc3cccc(OC)c3)n2)c1	6.9
O=C(O)c1cccc(Nc2c(C(=O)O)cccc2[N+](=O)[O-])c1	> 100
O=c1[nH]c2cccc([N+](=O)[O-])c2c(=O)n1-c1ccc(Cl)cc1	26.8
O=[N+]([O-])/C(C(Cl)=C(Cl)Cl)=C1\Nc2ccc([N+](=O)[O-])cc2N1	> 100
OC1=C2c3ccccc3NC2Oc2cc(F)ccc21 (centres undefined)	68.1

tested on: BT-549 breast; assay: NCI anticancer screen, dose series, 48 h

SMILES	TGI [µM]
CCOc1cccc(C=Nc2ccccc2SSc2ccccc2N=Cc2cccc(OCC)c2O)c1O	8.19
COc1cc(C(=O)NNC(=O)c2cc(Br)ccc2NC(=O)c2cccs2)cc(OC)c1OC	> 100
Cc1c2c(cc3c1C(=O)C(=O)C([C@@H](C)CO)=C3O)C(C)(C)CCC2	> 100
C[N+]12CCCCC1C(COc1cccc3cccnc13)CCC2 (centres undefined)	> 100
NC(=O)NC1NC(=O)NC1=O (centres undefined)	> 100
CC[C@@]1(O)C(=O)OCc2c1cc1n(c2=O)Cc2c-1nc1ccccc1c2/C=N\NC(=O)C[n+]1ccccc1	> 100
COc1ccc(CC2Cc3ccccc3CCN2)cc1OC (centres undefined)	> 50
C=CCN1C(=O)/C(=C/c2ccc(Cl)cc2)N=C1SC/C=C/C	> 100
CC12Nc3c(Cl)cc(Cl)cc3N1C(=O)c1ccccc12 (centres undefined)	> 100
CN(C)CCn1c(=O)c2ccc(NCCNCCO)c3c(=O)c4ccccc4n(c1=O)c23	4.81
OCC1OC(NC(=S)NCCC(F)(F)C(F)(F)C(F)(F)C(F)(F)C(F)(F)C(F)(F)F)C(O)C(O)C1O (centres undefined)	> 100
COC(=O)c1ccccc1/C=C1\Cc2c(ccc3c2CCC3)C1=O	> 100
Nc1cc(Cl)cc2cc(Cl)cnc12	> 100
O=S(=O)(O)CCSSCCS(=O)(=O)O	> 1000
CC1=CC[C@H](C[C@H](C#CCCCC2OCCO2)O[Si](C(C)C)(C(C)C)C(C)C)C(=O)CC1	> 100
CC(=O)OCC1OC(NC(=S)Nn2c(=O)[nH]c3ccccc3c2=O)C(OC(C)=O)C(OC(C)=O)C1OC(C)=O (centres undefined)	> 100
Cc1ccc2c(c1)C(=O)C1(C2)Cc2c(C)cccc2C1=O (centres undefined)	> 100
CC1=NN(c2cccc(S(=O)(=O)O)c2)C2(C1)C(Cl)C(=O)N2c1nc2ccccc2s1 (centres undefined)	18.7
O=c1[nH]c(=O)n(C/C=C/CO)nc1Br	> 100
O=C1Cc2c([nH]c3ccc(Br)cc23)-c2cc(Br)ccc2N1	> 100
O=C1CC(Br)c2c(Br)sc(Br)c21 (centres undefined)	36.7
CC[C@]12C=CCN3CC[C@@]4(c5cc(Br)c(OC)c([N+](=O)[O-])c5N(C)[C@H]4[C@@](O)(C(=O)OC)[C@@H]1OC(C)=O)[C@@H]32	> 100
COc1ccc(CNc2ccn(C3OC(CO)C(O)C3O)c(=O)n2)cc1 (centres undefined)	> 100
COc1ccc(NC(=S)Nc2cc(C)ccn2)cc1	> 100
NC(CSS(=O)(=O)O)=NC1CC2CCC1C2 (centres undefined)	> 100
COc1cccc(Nc2nc(C)c([N+](=O)[O-])c(Nc3cccc(OC)c3)n2)c1	8.14
O=C(O)c1cccc(Nc2c(C(=O)O)cccc2[N+](=O)[O-])c1	> 100
O=c1[nH]c2cccc([N+](=O)[O-])c2c(=O)n1-c1ccc(Cl)cc1	23.7
O=[N+]([O-])/C(C(Cl)=C(Cl)Cl)=C1\Nc2ccc([N+](=O)[O-])cc2N1	> 100
OC1=C2c3ccccc3NC2Oc2cc(F)ccc21 (centres undefined)	48.2

tested on: K-562 leukemia; assay: NCI anticancer screen, dose series, 48 h

SMILES	TGI [µM]
CCOc1cccc(C=Nc2ccccc2SSc2ccccc2N=Cc2cccc(OCC)c2O)c1O	27.6
COc1cc(C(=O)NNC(=O)c2cc(Br)ccc2NC(=O)c2cccs2)cc(OC)c1OC	11.9
Cc1c2c(cc3c1C(=O)C(=O)C([C@@H](C)CO)=C3O)C(C)(C)CCC2	> 100
C[N+]12CCCCC1C(COc1cccc3cccnc13)CCC2 (centres undefined)	> 100
NC(=O)NC1NC(=O)NC1=O (centres undefined)	> 100
CC[C@@]1(O)C(=O)OCc2c1cc1n(c2=O)Cc2c-1nc1ccccc1c2/C=N\NC(=O)C[n+]1ccccc1	> 100
COc1ccc(CC2Cc3ccccc3CCN2)cc1OC (centres undefined)	> 50
C=CCN1C(=O)/C(=C/c2ccc(Cl)cc2)N=C1SC/C=C/C	> 100
CN(C)CCn1c(=O)c2ccc(NCCNCCO)c3c(=O)c4ccccc4n(c1=O)c23	1.08
OCC1OC(NC(=S)NCCC(F)(F)C(F)(F)C(F)(F)C(F)(F)C(F)(F)C(F)(F)F)C(O)C(O)C1O (centres undefined)	> 100
COC(=O)c1ccccc1/C=C1\Cc2c(ccc3c2CCC3)C1=O	> 100
Nc1cc(Cl)cc2cc(Cl)cnc12	> 100
O=S(=O)(O)CCSSCCS(=O)(=O)O	> 1000
CC1=CC[C@H](C[C@H](C#CCCCC2OCCO2)O[Si](C(C)C)(C(C)C)C(C)C)C(=O)CC1	> 100
Cc1ccc2c(c1)C(=O)C1(C2)Cc2c(C)cccc2C1=O (centres undefined)	> 100
CC1=NN(c2cccc(S(=O)(=O)O)c2)C2(C1)C(Cl)C(=O)N2c1nc2ccccc2s1 (centres undefined)	> 41.4
O=C1Cc2c([nH]c3ccc(Br)cc23)-c2cc(Br)ccc2N1	> 100
O=C1CC(Br)c2c(Br)sc(Br)c21 (centres undefined)	29.9
CC[C@]12C=CCN3CC[C@@]4(c5cc(Br)c(OC)c([N+](=O)[O-])c5N(C)[C@H]4[C@@](O)(C(=O)OC)[C@@H]1OC(C)=O)[C@@H]32	> 100
COc1ccc(CNc2ccn(C3OC(CO)C(O)C3O)c(=O)n2)cc1 (centres undefined)	> 100
COc1ccc(NC(=S)Nc2cc(C)ccn2)cc1	> 100
NC(CSS(=O)(=O)O)=NC1CC2CCC1C2 (centres undefined)	> 100
COc1cccc(Nc2nc(C)c([N+](=O)[O-])c(Nc3cccc(OC)c3)n2)c1	> 100
O=C(O)c1cccc(Nc2c(C(=O)O)cccc2[N+](=O)[O-])c1	> 100
O=c1[nH]c2cccc([N+](=O)[O-])c2c(=O)n1-c1ccc(Cl)cc1	34.9
O=[N+]([O-])/C(C(Cl)=C(Cl)Cl)=C1\Nc2ccc([N+](=O)[O-])cc2N1	> 100

From PubChem BioAssay (NCI)
